Assay results: PubChem BioAssay (NCI)
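Values below derive from 48-hour exposures of cells grown in 96-well plates, with endpoints linearly interpolated between the two concentrations bracketing the appropriate inhibition level. Here, GI50 denotes the concentration required for 50% inhibition of growth. The concentration for full growth arrest is given as TGI.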

Assays:
Assay in all cases: NCI tumour cell line growth inhibition, 48 h
COLO 205 colon = system: COLO 205 colon
HCT-116 colon = system: HCT-116 colon
A549 NSCLC = system: A549 NSCLC
SK-OV-3 ovarian = system: SK-OV-3 ovarian
SK-MEL-28 melanoma = system: SK-MEL-28 melanoma
CCRF-CEM leukemia = system: CCRF-CEM leukemia
UACC-257 melanoma = system: UACC-257 melanoma
UO-31 renal = system: UO-31 renal
CAKI-1 renal = system: CAKI-1 renal
A498 renal = system: A498 renal

| SMILES | GI50 (COLO 205 colon) | TGI (COLO 205 colon) | GI50 (HCT-116 colon) | TGI (HCT-116 colon) | GI50 (A549 NSCLC) | TGI (A549 NSCLC) | GI50 (SK-OV-3 ovarian) | TGI (SK-OV-3 ovarian) | GI50 (SK-MEL-28 melanoma) | TGI (SK-MEL-28 melanoma) | GI50 (CCRF-CEM leukemia) | TGI (CCRF-CEM leukemia) | GI50 (UACC-257 melanoma) | TGI (UACC-257 melanoma) | GI50 (UO-31 renal) | TGI (UO-31 renal) | GI50 (CAKI-1 renal) | TGI (CAKI-1 renal) | GI50 (A498 renal) | TGI (A498 renal) |
| --- | --- | --- | --- | --- | --- | --- | --- | --- | --- | --- | --- | --- | --- | --- | --- | --- | --- | --- | --- | --- |
| CC(C)=O.O=C([O-])C(F)(F)F.O=C([O-])C(F)(F)F.O=C([O-])C(F)(F)F.O=C([O-])C(F)(F)F.[Rh+2].[Rh+2] | 96.1 µM | > 100 µM | 54 µM | > 100 µM | > 100 µM | > 100 µM | > 100 µM | > 100 µM | 94.3 µM | > 100 µM | 35.5 µM | > 100 µM | > 100 µM | > 100 µM | > 100 µM | > 100 µM |  |  |  |  |
| O=c1cc(-c2ccccc2)oc2ccc(OC/C(=N/O)c3ccc(F)cc3)cc12 | 2.23 µM | 8.19 µM | 2.97 µM | 9.05 µM | 7.12 µM | > 50 µM | 4.9 µM | 30.7 µM | 3.33 µM | 16.2 µM | 3.24 µM | 17.1 µM | 9.77 µM | 38.2 µM | 10.8 µM | > 50 µM | 3.57 µM | 16.2 µM |  |  |
| O=C1CSC(c2ccc(-c3nc4ccccc4[nH]3)cc2)=N1 | > 50 µM | > 50 µM | 18.6 µM | > 50 µM | 18.8 µM | > 50 µM | > 50 µM | > 50 µM |  |  |  |  | 20.3 µM | > 50 µM | 19.8 µM | > 50 µM | > 50 µM | > 50 µM |  |  |
| COc1cc2c3c(n(CCCCNC(=O)OC(C)(C)C)c(=O)c2cc1OC)-c1cc2c(cc1C3=O)OCO2 | > 100 µM | > 100 µM | > 100 µM | > 100 µM | > 100 µM | > 100 µM | > 100 µM | > 100 µM | > 100 µM | > 100 µM |  |  | > 100 µM | > 100 µM | > 100 µM | > 100 µM | 3.45 µM | 74.5 µM | > 100 µM | > 100 µM |
| O=S(=O)(c1ccccc1)c1nccs1 |  | > 100 µM |  | > 100 µM |  | > 100 µM |  | > 100 µM |  | > 100 µM |  |  |  | > 100 µM |  | > 100 µM |  | > 100 µM |  | > 100 µM |
| S=c1nc(C(c2ccccc2)c2ccccc2)[nH][nH]1 |  | > 100 µM |  | > 100 µM |  | > 100 µM |  | > 100 µM |  | > 100 µM |  | > 100 µM |  | > 100 µM |  | > 100 µM |  |  |  | > 100 µM |
| CCOc1cc(C(=O)O)c2c(ccc3ccc(OC)c(OC)c32)c1OC |  | > 100 µM |  | > 100 µM |  | > 100 µM |  | > 100 µM |  | > 100 µM |  | > 100 µM |  | > 100 µM |  | > 100 µM |  | > 100 µM |  |  |
| O=C(Nc1cc(Cl)ccc1Cl)c1cc2cccc(Br)c2oc1=O |  | > 100 µM |  | > 100 µM |  | > 100 µM |  | > 100 µM |  | > 100 µM |  | > 100 µM |  | > 100 µM |  | > 100 µM |  |  |  |  |
| c1ccc2cc(Cn3cc[n+](Cc4ccc5ccccc5c4)c3)ccc2c1 | 0.4 µM | 1.67 µM | 1.97 µM | 12.3 µM | 7.97 µM | 22.9 µM | 2.15 µM | 11.1 µM | 1.2 µM | 3.36 µM | 1.61 µM | 11 µM | 0.587 µM | 2.55 µM | 12.1 µM | 28.8 µM |  |  | 0.0254 µM | 4.69 µM |
| CSC(=Nc1ccccc1Cl)NC(=O)c1ccc(Br)cc1 |  | > 100 µM |  | > 100 µM |  | > 100 µM |  | > 100 µM |  | 66.3 µM |  |  |  | > 100 µM |  | > 100 µM |  | 97.4 µM |  |  |
| COc1cccc2c1C(=O)c1c(O)c3c(c(O)c1C2=O)C[C@@](O)(C(C)=O)C[C@@H]3OC1CC([N+]([O-])(Cc2ccccc2)Cc2ccccc2)C(O)C(C)O1 (stereo partly drawn) |  |  |  |  |  | 5.18 µM |  | 17.2 µM |  |  |  |  |  | 3.17 µM |  | 2.54 µM |  | 2.47 µM |  | 8.53 µM |
| Cc1ccc(-c2c(C#N)[n+](=O)c3cc(F)c(F)cc3n2[O-])cc1 | 19.5 µM | 38.6 µM | 1.23 µM | 5.21 µM | 28.2 µM | 86 µM |  |  | 20.5 µM | 38.4 µM | 1.6 µM | 4.41 µM | 23.5 µM | 48.7 µM | 9.79 µM | 37.7 µM | 2.48 µM | 5.74 µM | 21.1 µM | 36.5 µM |
| Cc1cc(C)nc(NS(=O)(=O)c2ccc(Nc3c4ccccc4nc4c(C(=O)Nc5ccc(S(=O)(=O)Nc6cc(C)on6)cc5)ccc(Cl)c34)cc2)n1 |  |  |  | 40.5 µM |  |  |  | > 100 µM |  | 69.4 µM |  | 71 µM |  | 91.3 µM |  | 45.3 µM |  |  |  | 38.3 µM |
